Laboratory results from EP4603105A1, “PHARMACEUTICAL COMPOSITION CONTAINING CYCLIC COMPOUND HAVING SELECTIVE KRAS INHIBITORY EFFECT AGAINST HRAS AND NRAS” (CHUGAI SEIYAKU KABUSHIKI KAISHA, priority 2022, dated 2024).
*1 amine or outer side, *2 acyl side, *3 side chain or, on linkers, in order; H or OH if unused. Where a SMILES comes first, the peptide text is derived from it. Bridges are numbered along the chain shown (N, C = ends). [ ]: non-standard residue; d: D form. The star is where a group is joined. hPhe(3-Cl-4-CF3) = N[C@@H](CCc1ccc(C(F)(F)F)c(Cl)c1)C(=O)O; NPrPhe(4-CF3) = CCCN[C@@H](Cc1ccc(C(F)(F)F)cc1)C(=O)O; X1 = CCCCN([C@@H](Cc1ccc(C)cc1)C(=O)[*:2])[*:1]; X30 = CCN([C@H](C(=O)[*:2])C1CCCC1)[*:1]; NMeGly(cPent) = CN[C@H](C(=O)O)C1CCCC1; NMeD = CN[C@@H](CC(=O)O)C(=O)O; NMeL = CN[C@@H](CC(C)C)C(=O)O; Morpholide = C1CN(*)CCO1; Ac5c = NC1(C(=O)O)CCCC1; Aze = O=C(O)[C@@H]1CCN1; Ac4c = NC1(C(=O)O)CCC1; Sar = CNCC(=O)O

What was measured:
[1] = molecular target: GDP-bound NRAS wild-type protein (Homo sapiens, UniProt P01111); assay: Binding to NRAS by surface plasmon resonance (SPR), KD and KD ratio to KRAS
GDP-bound NRAS wild-type protein, sequence (P01111 whole entry): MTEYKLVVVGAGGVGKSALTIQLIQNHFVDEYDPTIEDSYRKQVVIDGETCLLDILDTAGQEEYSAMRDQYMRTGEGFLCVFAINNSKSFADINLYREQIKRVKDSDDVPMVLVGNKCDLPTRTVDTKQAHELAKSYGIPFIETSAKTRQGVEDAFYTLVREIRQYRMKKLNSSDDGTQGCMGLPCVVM
Outline: (§1)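 Each cycle, GDP-bound biotin-Avi RAS was captured (~100–300 RU), compound concentrations were injected low to high for 75 s each at 100 µL/min, then the chip was regenerated. Buffer: HBS pH 7.4, 10 mM MgCl2, 10 µM GDP, 1 mM DTT, 4% DMSO; 30°C. KD from a 1:1 binding model.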

[2] = tested on: human lung cancer strain NCI-H441; assay type: cell-based
Outline: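 Signal came from […] measured per well once the reagent was added. Beforehand, cells were cultured at 37°C and 5% carbon dioxide on a compound series serially diluted in dimethyl sulfoxide.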

HRAS wild-type protein = HRAS wild-type protein (Homo sapiens, UniProt P01112); assay: Binding to HRAS by surface plasmon resonance (SPR), KD and KD ratio to KRAS
HRAS wild-type protein, sequence (P01112 whole entry): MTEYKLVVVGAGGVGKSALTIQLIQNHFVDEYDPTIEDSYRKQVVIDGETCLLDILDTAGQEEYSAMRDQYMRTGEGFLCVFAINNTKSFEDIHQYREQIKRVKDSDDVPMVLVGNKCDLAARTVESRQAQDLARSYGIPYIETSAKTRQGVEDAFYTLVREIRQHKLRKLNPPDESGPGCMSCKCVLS
Outline: as §1

[3] = ratio of KD for GDP-bound NRAS wild-type protein to KD for KRAS
[4] = ratio of KD for HRAS wild-type protein to KD for KRAS
[5] = ratio of KD value for GDP-bound NRAS wild-type protein to KD value for KRAS (SPR)
[6] = ratio of KD value for HRAS wild-type protein to KD value for KRAS (SPR)
[7] = ratio of the KD value with respect to GDP-bound NRAS wild-type protein to the KD value with respect to KRAS
[8] = ratio of the KD value with respect to HRAS wild-type protein to the KD value with respect to KRAS

SMILES	IC50 [2]	NRAS /KRAS [1, 3]	HRAS /KRAS (HRAS wild-type protein; [4])	NRAS /KRAS [1, 5]	HRAS /KRAS (HRAS wild-type protein; [6])	NRAS /KRAS [1, 7]	HRAS /KRAS (HRAS wild-type protein; [8])
CCC[C@H]1C(=O)N[C@@H]([C@@H](C)CC)C(=O)N(C)CC(=O)N(C)[C@H]2C/C=C\CCN(C2=O)[C@@H](Cc2ccc(C(F)(F)F)cc2)C(=O)N(C)CC(=O)N[C@@H](CCc2ccc3sc(C)c(C)c3c2)C(=O)N2C[C@H](OCC)C[C@H]2C(=O)NC2(CC(C)(C)C2)C(=O)N(C)[C@@H](C2CCCC2)C(=O)N(C)[C@H](C(=O)N(C)C)CC(=O)N1C [PP2889]	20.9 nM	A (a compound having 10 or more and less than 20 is denoted as A)	A (a compound having 10 or more and less than 20 is denoted as A)				
CCO[C@@H]1C[C@H]2C(=O)NC3(CCC3)C(=O)N(C)[C@@H](C3CCCC3)C(=O)N(C)[C@H](C(=O)N(C)C)CC(=O)N(C)[C@@H](Cc3cccnc3)C(=O)N[C@@H]([C@@H](C)CC)C(=O)N(C)CC(=O)N(C)[C@H]3CCCCN(C3=O)[C@@H](Cc3ccc(C(F)(F)F)cc3)C(=O)N(C)CC(=O)N[C@@H](CCc3cc(F)c(C(F)(F)F)c(F)c3)C(=O)N2C1 [PP0703]	26.7 nM					C (A compound having a KD ratio of 0.1 or more and less than 3 is denoted as C)	B (a compound having 3 or more and less than 10 is denoted as B)
CCO[C@@H]1C[C@H]2C(=O)NC3(CC(C)(C)C3)C(=O)N(C)[C@@H](C(CC)CC)C(=O)N(C)[C@H](C(=O)N3CCCC3)CC(=O)N(C)[C@@H](C)C(=O)N[C@@H]([C@@H](C)CC)C(=O)N(C)CC(=O)N(C)[C@H]3C/C=C\CCN(C3=O)[C@@H](Cc3ccc(C)cc3)C(=O)N(C)CC(=O)N[C@@H](CCc3ccc(C(F)(F)F)c(Cl)c3)C(=O)N2C1 [PP2152]	29.4 nM					AA (a compound having 20 or more is denoted as AA)	A (a compound having 10 or more and less than 20 is denoted as A)
CC[C@H](C)[C@@H]1NC(=O)[C@H](CC)N(C)C(=O)C[C@@H](C(=O)N(C)C)N(C)C(=O)[C@H](C2CCCC2)N(C)C(=O)C2(CCCC2)N(C)C(=O)[C@@H]2CCCN2C(=O)[C@H](CCc2cc(F)c(C(F)(F)F)c(F)c2)NC(=O)CN(C)C(=O)[C@H](Cc2ccc(C)cc2)N2CC/C=C\C[C@@H](C2=O)N(C)C(=O)[C@@H]2CCCN2C1=O [PP1811]	14.3 nM			A (a compound having 10 or more and less than 20 is denoted as A)	B (a compound having 3 or more and less than 10 is denoted as B)		
CCCCN1C(=O)CN(C)C(=O)CN(C)C(=O)[C@H]([C@@H](C)CC)NC(=O)[C@H](CC(C)C)N(C)C(=O)C[C@@H](C(=O)N2CCOCC2)N(C)C(=O)[C@H](C2CCCC2)N(C)C(=O)C2(CCCC2)NC(=O)[C@@H]2CCCN2C(=O)[C@H](CCc2ccc(C(F)(F)F)c(Cl)c2)NC(=O)CN(C)C(=O)[C@@H]1Cc1ccc(C)cc1 [PP0062] ([NMeL]I[Sar][Sar][X1][Sar][hPhe(3-Cl-4-CF3)]P[Ac5c][NMeGly(cPent)][NMeD]-Morpholide; lactam N-11)	3.8 nM	C (A compound having a KD ratio of 0.1 or more and less than 3 is denoted as C)	C (A compound having a KD ratio of 0.1 or more and less than 3 is denoted as C)				
CCCN(C)C(=O)[C@@H]1CC(=O)N(C)[C@@H](CCOC)C(=O)N[C@@H]([C@@H](C)CC)C(=O)N(C)CC(=O)N(C)[C@H]2C/C=C\CCN(C2=O)[C@@H](Cc2ccc(C(F)(F)F)cc2)C(=O)N(C)CC(=O)N[C@@H](CCc2ccc(C(F)(F)F)c(OC)c2)C(=O)N2C[C@H](OCC)C[C@H]2C(=O)NC2(CCC2)C(=O)N(C)[C@@H](C2CCCC2)C(=O)N1C [PP2018]	5.3 nM					A (a compound having 10 or more and less than 20 is denoted as A)	B (a compound having 3 or more and less than 10 is denoted as B)
CCCN1C(=O)CN(C)C(=O)CN(C)C(=O)[C@H]([C@@H](C)CC)NC(=O)[C@H](CC(C)C)N(C)C(=O)C[C@@H](C(=O)N2CCOCC2)N(C)C(=O)[C@H](C2CCCC2)N(CC)C(=O)C2(CCC2)NC(=O)[C@@H]2CCCN2C(=O)[C@H](CCc2ccc(C(F)(F)F)c(Cl)c2)NC(=O)CN(C)C(=O)[C@@H]1Cc1ccc(C(F)(F)F)cc1 [PP1952] ([NMeL]I[Sar][Sar][NPrPhe(4-CF3)][Sar][hPhe(3-Cl-4-CF3)]P[Ac4c][X30][NMeD]-Morpholide; lactam N-11)	14 nM					B (a compound having 3 or more and less than 10 is denoted as B)	B (a compound having 3 or more and less than 10 is denoted as B)

Continued by falling IC50 [2], values first:

IC50 [2]	SMILES	NRAS /KRAS [1, 3]	HRAS /KRAS (HRAS wild-type protein; [4])	NRAS /KRAS [1, 5]	HRAS /KRAS (HRAS wild-type protein; [6])	NRAS /KRAS [1, 7]	HRAS /KRAS (HRAS wild-type protein; [8])
154 nM	CCO[C@@H]1C[C@H]2C(=O)NC3(CCC3)C(=O)N(C)[C@@H](C3CCCC3)C(=O)N(C)[C@H](C(=O)N(C)C)CC(=O)N(C)[C@@H](CC)C(=O)N[C@@H]([C@@H](C)CC)C(=O)N(C)CC(=O)N(C)[C@H]3CCCCCN(C3=O)[C@@H](Cc3ccc(C(F)(F)F)cc3)C(=O)N(C)CC(=O)N[C@@H](CCc3c(F)c(F)c(C(F)(F)F)c(F)c3F)C(=O)N2C1 [PP0891]	B (a compound having 3 or more and less than 10 is denoted as B)	B (a compound having 3 or more and less than 10 is denoted as B)				
58.7 nM	CCO[C@@H]1C[C@H]2C(=O)NC3(CCC3)C(=O)N(C)[C@@H](C3CCCC3)C(=O)N(C)[C@H](C(=O)N(C)C)CC(=O)N(C)[C@@H](CC)C(=O)N[C@@H]([C@@H](C)CC)C(=O)N(CC)CC(=O)N(C)[C@H]3C/C=C\CCN(C3=O)[C@@H](Cc3ccc(C(F)(F)F)cc3)C(=O)N(C)CC(=O)N[C@@H](CCc3cc(F)c(C(F)(F)F)c(F)c3)C(=O)N2C1 [PP1052]	A (a compound having 10 or more and less than 20 is denoted as A)	A (a compound having 10 or more and less than 20 is denoted as A)				
29.6 nM	CCCN1C(=O)[C@@H]2CCN2C(=O)CN(C)C(=O)[C@H]([C@@H](C)CC)NC(=O)[C@H](CC(C)C)N(C)C(=O)C[C@@H](C(=O)N(C)C)NC(=O)[C@H](C2CCCC2)N(C)C(=O)C2(CCC2)NC(=O)[C@@H]2CCCN2C(=O)[C@H](CCc2ccc(C(F)(F)F)c(Cl)c2)NC(=O)CN(C)C(=O)[C@@H]1Cc1ccc(C(F)(F)F)cc1 [PP0386] ([NMeL]I[Sar][Aze][NPrPhe(4-CF3)][Sar][hPhe(3-Cl-4-CF3)]P[Ac4c][NMeGly(cPent)]D-NMe2; lactam N-11)	C (A compound having a KD ratio of 0.1 or more and less than 3 is denoted as C)	B (a compound having 3 or more and less than 10 is denoted as B)				
10.3 nM	CCCC[C@H]1C(=O)N[C@@H]([C@@H](C)CC)C(=O)N(C)CC(=O)N(C)[C@H]2C/C=C\CCN(C2=O)[C@@H](Cc2ccc(C(F)(F)F)cc2)C(=O)N(C)CC(=O)N[C@@H](CCc2cc(F)c(C(F)(F)F)c(F)c2)C(=O)N2C[C@H](OCC)C[C@H]2C(=O)NC2(CCC2)C(=O)N(C)[C@@H](C2CCCC2)C(=O)N(C)[C@H](C(=O)N(C)CCC)CC(=O)N1C [PP1704]			A (a compound having 10 or more and less than 20 is denoted as A)	A (a compound having 10 or more and less than 20 is denoted as A)		
6.7 nM	CCC[C@H]1C(=O)N[C@@H]([C@@H](C)CC)C(=O)N2CCC[C@H]2C(=O)N(C)[C@H]2C/C=C\CCN(C2=O)[C@@H](Cc2ccc(C)cc2)C(=O)N(C)CC(=O)N[C@@H](CCc2ccc(C(F)(F)F)c(OC)c2)C(=O)N2C[C@H](OCC)C[C@H]2C(=O)N(C)C2(CCC2)C(=O)N(C)[C@@H](C2CCCC2)C(=O)N(C)[C@H](C(=O)N2CCCC2)CC(=O)N1C [PP3102]	A (a compound having 10 or more and less than 20 is denoted as A)	A (a compound having 10 or more and less than 20 is denoted as A)				
